In patent publication US20250027045A1, “ESTABLISHMENT OF ERYTHROID PRECURSOR CELL LINE CAPABLE OF CONDITIONAL MATURATION USING GENE OVEREXPRESSION” (IUCF-HYU (INDUSTRY-UNIVERSITY COOPERATION FOUNDATION …, priority 2021, published 2025):
Read-outs that look alike come from different tables or passages of the source.

Experiments:
[1] = tested on: Cord blood-derived CD34+ cells; experiment: Proliferation of typical CD34+ cell culture with or without TGF-β inhibitor and PPAR-α agonist (cumulative cell number); assay type: cell-based, human
Protocol: HSCs were cultured for one to three days in a medium containing StemSpan SFEM (Stemcell Technologies) with 6 IU/ml EPO (Calbiochem, San Diego, CA), 100 ng/ml SCF (R&D Systems, Minneapolis, MN), and 10 ng/ml IL-3 (R&D Systems). Then, 5×10^4 cells were transduced with the virus concentrated in the above culture medium and polybrenc (8 μg/ml, Sigma). The multiplicity of infection (MOI) of the virus during transduction was calculated to be 15 to 30. 24 hours after the transduction, the medium was replaced with a fresh virus-free medium, and from day 5 of culture, the StemSpan SFEM medium was supplemented with 3 IU/ml EPO, 50 ng/ml SCF, 10^−6 M dexamethasone, and 250 nM TGF-β inhibitor (LY2157299, PeproTech, Rocky Hill, NJ), 10 μM PPAR-α agonist (GW7647, Sigma), and 1 μg/ml doxycycline (Takara Bio Inc.) to induce selective expression of HPV16 E6/E7 in the transduced cells. The efficiency of transduction was confirmed on day 7 of culture through GFP fluorescence expression of GFP-transduced cells, and the cells were maintained at a concentration of 2 to 3×10^5 cells/ml while replacing the medium with a fresh medium every two to three days. In addition, to obtain the cell proliferation and survival rate, the cells were stained with trypan blue (Gibco) and counted. […]

[2] = tested on: Cord blood-derived CD34+ cells; experiment: Flow cytometry of CD71 marker: proportion of immature erythroblasts; assay type: cell-based, human; details: day 17, flow cytometry
Protocol: The following antibodies were used: glycophorin A (GPA; CD235a)-FITC (Life Technologies Inc., Gaithersburg, MD); and CD71-PE (BioLegend Inc., San Diego, CA). The cells were washed with 0.1% BSA, then antibodies were added and stained for 15 minutes at 4° C., while blocking light. In addition, a fluorescence microscope (Nikon Eclipse Ti; Nikon Corporation) was used to confirm the GFP fluorescence expressed in the cells cultured in the plate.
There is an TGF-β inhibitor (LY2157299) which is known to be effective in the maintenance and proliferation of immature erythroblasts, and a PPAR-α agonist (GW7647) that may have a synergistic effect on the proliferation of immature erythroblasts with glucocorticoid was explored, and an experiment was performed on the effects of the two substances. First, the two substances were added to a typical CD34+ cell culture under different conditions and cultured. In terms of cell proliferation, the cells proliferated the most by 1,500-fold by day 15 of culture when the culture was performed by adding the two substances together, and the cells proliferated by 1,000-fold by day 13 of culture in the experimental group where only the TGF-β inhibitor was added. […]

Excerpt for E6/E7-transduced cells: Some of the cells in culture were spread on a slide using a cell centrifuge (Cellspin; Hanil Science Industrial Co. Ltd., Incheon, Korea) and stained with a Wright-Giemsa stain (Sigma), and the state, shape, and maturity of the cells were confirmed in a blind manner. Cell photos were taken using an optical microscope (Nikon Eclipse TE2000-U; Nikon Corporation).
In addition, the immature erythroblast marker CD71 was attached to the proliferating cells, and the proportion of immature erythroblasts was confirmed through flow cytometry.

SMILES | proliferation rate ([1]; day not given) [fold] | proportion of immature erythroblasts (CD71) [2] [%] | cell proliferation ([1]; by day 13 of culture) | immature erythroblasts, % of all cells (E6/E7-transduced cells; day 28 of culture) [%] | immature erythroblasts, % of all cells (E6/E7-transduced cells; day 33 of culture) [%]
CC(C)(Sc1ccc(CCN(CCCCC2CCCCC2)C(=O)NC2CCCCC2)cc1)C(=O)O [PPAR-α agonist, GW7647] | 500 | 53 |  |  | 
Cc1cccc(-c2nn3c(c2-c2ccnc4ccc(C(N)=O)cc24)CCC3)n1 [TGF-β inhibitor, LY2157299] |  |  | 1,000 fold | 26.7 | 15.2
